Laboratory results published in publication PMC5768343, “A natural inhibitor of kidney-type glutaminase: a withanolide from Physalis pubescens with potent anti-tumor activity” (Oncotarget, 2017).

What was measured:
intracellular KGA = target: T1, intracellular KGA (Homo sapiens, UniProt O94925); test: Cellular thermal shift assay (CETSA) in intact SW1990 cells; format: cell-based; conditions: 10 μM, 4 hours, 48°C without compound
T1 construct: endogenous in cells; host or cells: SW1990
T1 sequence (O94925 55-669): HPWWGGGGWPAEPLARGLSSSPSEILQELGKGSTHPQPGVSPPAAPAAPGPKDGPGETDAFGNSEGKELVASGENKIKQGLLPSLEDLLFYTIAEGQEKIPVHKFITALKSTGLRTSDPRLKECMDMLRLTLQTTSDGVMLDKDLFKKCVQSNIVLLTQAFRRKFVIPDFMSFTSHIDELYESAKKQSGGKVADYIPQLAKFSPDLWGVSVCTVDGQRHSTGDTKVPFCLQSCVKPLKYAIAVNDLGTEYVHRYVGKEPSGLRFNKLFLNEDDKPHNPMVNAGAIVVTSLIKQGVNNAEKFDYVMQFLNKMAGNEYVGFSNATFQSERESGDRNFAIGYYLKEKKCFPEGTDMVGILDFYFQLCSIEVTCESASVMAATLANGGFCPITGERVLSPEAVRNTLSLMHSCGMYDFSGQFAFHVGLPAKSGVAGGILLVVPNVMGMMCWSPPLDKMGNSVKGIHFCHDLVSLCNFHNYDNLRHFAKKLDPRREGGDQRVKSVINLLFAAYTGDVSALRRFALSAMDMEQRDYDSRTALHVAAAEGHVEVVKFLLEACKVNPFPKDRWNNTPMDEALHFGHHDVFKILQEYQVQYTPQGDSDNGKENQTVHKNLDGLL
From the text: To further investigate the interaction of the compound with KGA, microscale thermophoresis method (MST) was used to assay the binding affinity between physapubescin K and KGA. This technology can quantify protein-protein or protein-small molecule interactions with high sensitivity through detecting fluorescent changes of molecules during thermophoresis. […] However, it was of vital importance to verify whether it could bind with the intracellular KGA. The cellular thermal shift assay (CETSA), which based on the biophysical principle of ligand-induced thermal stabilization of target protein [25], was thus conducted to investigate its affinity with intracellular KGA. […] As shown in Figure 4B and 4C, physapubescin K increased the thermal stability of KGA in intact cells from tolerate temperature of 48°C to temperature of 50°C.
The ability of compounds to interact with, and thereby stabilize the target in intact cells, was analyzed essentially as described by Alshareef A et al.. Briefly, cells cultured in 10-cm tissue culture dishes at about 90% confluence were treated with media containing DMSO or 10 μM physapubescin K for 4 hours. After treatment, cells were detached with cell scraper, collected by centrifugation and subsequently resuspended in PBS. The cell suspension was aliquoted into seven PCR tubes and heated for 3 minutes to 40, 42, 44, 46, 48, 50 or 52°C. […]

KGA (recombinant cKGA) = target: T2, KGA (recombinant cKGA) (Homo sapiens, UniProt O94925); test: Microscale thermophoresis (MST) binding assay; conditions: labeled KGA 200 nM, 26°C
T2 construct: human KGA (cKGA) encoding amino acids 221–553 was cloned into pET26b vector; His tag (C); made in house; host or cells: E. coli BL21 (DE3)-RIL-Codon plus
T2 sequence (O94925 221-553): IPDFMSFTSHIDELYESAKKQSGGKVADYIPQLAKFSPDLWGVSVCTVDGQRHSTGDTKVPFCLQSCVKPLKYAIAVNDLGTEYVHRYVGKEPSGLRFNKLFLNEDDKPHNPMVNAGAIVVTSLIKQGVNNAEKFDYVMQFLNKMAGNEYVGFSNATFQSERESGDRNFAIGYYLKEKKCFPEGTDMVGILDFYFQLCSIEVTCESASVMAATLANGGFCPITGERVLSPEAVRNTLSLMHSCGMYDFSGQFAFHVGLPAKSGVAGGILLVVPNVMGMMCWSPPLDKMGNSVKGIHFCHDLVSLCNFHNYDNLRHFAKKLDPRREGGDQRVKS
From the text: Specific details were referenced to our previous work.

[1] = test system: erlotinib-resistant human non-small cell lung cancer cells (HCC827-ER); test: CCK8 cytotoxicity / proliferation assay, HCC827-ER; format: cell-based
Protocol: (§1) The experiment was performed in triplicate.

[2] = test system: human normal liver cell LO2; test: CCK8 cytotoxicity / proliferation assay, LO2; format: cell-based; conditions: CCK8, 48 h
Protocol: as §1

HCC827-ER = test: EdU and DAPI double staining, combination with erlotinib; format: cell-based, human; conditions: 0.5 μM with erlotinib 1, 2, 4, 8 μM
Protocol: The logarithmic growth phase cells were seeded in 24-well plates at 2 × 10^4 ∼ 5 × 10^5 cells per well. After 4–6 h, the medium was removed, the medium containing no or different concentrations of compound was replaced, and 50 μM of EdU was added. 2 h later, the medium was removed, cells washed by PBS. 200 μL of cell fixative (i.e., PBS containing 4% paraformaldehyde) was added and incubated at room temperature for 30 minutes. The solution was discarded and 200 μL of 2 mg/mL glycine was added to each well. After 5 minutes of incubation, the glycine solution was discarded. Each well washed with 200 μL of PBS, rinse for 5 minutes, and PBS was removed. Apollo staining was added to each well with 200 μL of 1 X Apollo® staining solution. After incubation for 30 minutes at room temperature and decolorization, the reaction solution was discarded. Similarly, 200 μL of 1 × Hoechst 33342 solution was added to each well to dye the total DNA. After 30 minutes of incubation at room temperature and the reaction solution was discarded, and then the images were captured and analyzed by fluorescence microscopy.

SW1990 xenograft = SW1990 xenograft mouse model; format: in vivo; conditions: 5 mg/kg intraperitoneal injection daily, P < 0.01, dose-dependent
Protocol: All animal experiments were performed in accordance with the Guide for the Care and Use of Laboratory Animals of Tongji Medical College, Huazhong University of Science and Technology and approved by the Ethics Committee. CB-17/ SCID mice (male, 4 weeks old) were purchased from Beijing HFK Bioscience CO., LTD (Beijing, China). SW1990 cells were inoculated subcutaneously (3 × 10^6 cells) into the left flank of each mouse. Six days later, mice were randomly divided into […] and were injected i.p. daily for 16 days with one of the following treatments: (1) natural saline group (n = 10); (2) 5 mg/Kg physapubescin K (n = 10); (3) 10 mg/Kg physapubescin K (n = 10). The dose volume was 0.1 mL/10 g body weight, and the weights of mice were recorded every day. Meanwhile, the tumor volumes were measured with vernier calipers and calculated by the following formula: (A × B2)/2, where A was length and B was width of the two-dimension tumor. After animals were sacrificed, tumor weights were measured. The inhibition ratio (%) was calculated using the following equation: I% = 100% × [Wtumor (vehicle) − Wtumor (treated)]/Wtumor (vehicle)

SMILES: CO[C@H]1O[C@@H]([C@@H](C)[C@H]2C[C@H](OC(C)=O)[C@H]3[C@@H]4C[C@H]5O[C@]56[C@@H](O)C=CC(=O)[C@]6(C)[C@H]4CC[C@@]32C)C[C@]2(C)O[C@]12C [physapubescin K]
- thermal stability of KGA, tolerate temperature (intracellular KGA): 50 °C
- Kd (KGA (recombinant cKGA)): 3.03 ± 0.38 µM
- sensitivity of cell growth to treatment ([1]; HCC827-ER, 1 μM): sensitive
- IC50 ([1]; Homo sapiens, HCC827ER, CCK8, 48 h): 0.72 ± 0.22 µM
- IC50 [2]: 11.7 ± 0.32 µM
- sensitivity of HCC827-ER to erlotinib (HCC827-ER): significantly increase the sensitivity
- growth of the tumor (SW1990 xenograft): significantly inhibit the growth of the tumor
